From ChEMBL document CHEMBL1201862, “PubChem BioAssay data set” (2004)
The source made the active and inactive calls.

Tests used:
[1] = Luminescence Cell-Based Dose Response HTS to Identify Activators of Luciferase Translation or Activity in H4 […] Cells. [Related pubchem assays: 1829 (Project Summary), 1814 (Primary HTS)]; format: functional
H4 = test: Luminescence Cell-Based Dose Response HTS to Identify Activators of 5'UTR Stem-Loop Driven Prion Protein mRNA Translation in H4 Neuroglioblastoma Cells. [Related pubchem assays: 1829 (Project Summary), 1814 (Primary HTS)]; format: functional; settings: Homo sapiens
[2] = NIH3T3 cell viability loss – ATP luminescence, mouse fibroblasts, counter-screen, dose response (AID 2010); format: functional, cell-based;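 note: cells exposed to compound for about 90 hours before reading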
[3] = Trypanosoma cruzi growth suppression in host cells – NIH3T3 host cells, beta-gal luminescence, confirmation (AID 2044); format: functional, cell-based;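 note: intracellular parasites grown in NIH/3T3 mouse fibroblasts as host cells; luminescent beta-galactosidase reporter signal from transgenic T. cruzi replicating inside host cells; inhibitors lower the luminescence signal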
Cytochrome P450 2C19 = Cytochrome P450 2C19 (Homo sapiens, UniProt P33261); test: Cytochrome panel assay with activity outcomes. Panel member name: p450-cyp2c19 Compounds with AC50 equal or less than 10 uM are considered active; format: functional; settings: read-out: AC50
[4] = tested on: Streptococcus sp. 'group A'; test: Streptococcus pyogenes SK(-)GAS viability under kanamycin – luminescence, BacTiterGlo, confirmation, counter-screen for streptokinase expression inhibitor project, dose response (AID 1900); format: functional, organism-based
Streptokinase A = target: T1, Streptokinase A (Streptococcus pyogenes serotype M1, UniProt P10520); test: viability-normalized secreted streptokinase activity reduction – plasminogen activation absorbance, OD405, dose response (AID 1914); format: functional, Streptococcus pyogenes M1 GAS;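 note: secreted streptokinase activity via plasminogen activation per viability signal from cell pellet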
T1 sequence (P10520 whole entry): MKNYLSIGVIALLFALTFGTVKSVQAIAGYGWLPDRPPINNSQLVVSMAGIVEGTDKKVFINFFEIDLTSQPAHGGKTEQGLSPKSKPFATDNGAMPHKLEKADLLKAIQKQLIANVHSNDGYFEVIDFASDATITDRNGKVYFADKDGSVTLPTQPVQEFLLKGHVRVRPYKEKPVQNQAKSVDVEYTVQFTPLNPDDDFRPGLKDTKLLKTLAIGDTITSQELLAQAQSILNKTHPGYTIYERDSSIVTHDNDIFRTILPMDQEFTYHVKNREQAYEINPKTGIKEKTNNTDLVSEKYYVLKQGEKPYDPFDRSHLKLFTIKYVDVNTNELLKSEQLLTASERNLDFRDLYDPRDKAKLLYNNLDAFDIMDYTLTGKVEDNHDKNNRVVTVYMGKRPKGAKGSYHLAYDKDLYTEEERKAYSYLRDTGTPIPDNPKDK

Streptococcus = test: GAS UMAA2166 growth inhibition – luminescence, BacTiterGlo, counter-screen for streptokinase expression inhibitor project, dose response (AID 1915); format: functional, organism-based;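 note: potency for reduction of bacterial viability or growth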
Cytochrome P450 1A2 = target: T2, Cytochrome P450 1A2 (Homo sapiens, UniProt P05177);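 note: PubChem cytochrome P450 panel assay, CYP1A2 panel member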
T2 sequence (P05177 whole entry): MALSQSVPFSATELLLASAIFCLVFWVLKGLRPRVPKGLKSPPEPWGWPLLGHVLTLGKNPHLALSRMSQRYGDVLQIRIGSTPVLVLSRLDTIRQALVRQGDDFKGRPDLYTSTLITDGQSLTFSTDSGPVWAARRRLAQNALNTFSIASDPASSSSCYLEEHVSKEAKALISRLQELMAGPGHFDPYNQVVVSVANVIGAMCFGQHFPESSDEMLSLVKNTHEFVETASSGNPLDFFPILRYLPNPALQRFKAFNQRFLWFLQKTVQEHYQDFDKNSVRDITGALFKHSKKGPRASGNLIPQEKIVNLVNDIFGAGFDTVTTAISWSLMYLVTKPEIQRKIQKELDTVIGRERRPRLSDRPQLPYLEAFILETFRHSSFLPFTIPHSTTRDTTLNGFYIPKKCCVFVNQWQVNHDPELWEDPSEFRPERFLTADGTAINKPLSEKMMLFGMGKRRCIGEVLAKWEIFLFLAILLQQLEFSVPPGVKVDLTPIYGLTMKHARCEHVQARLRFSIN

Cytochrome P450 2C19, sequence (P33261 whole entry): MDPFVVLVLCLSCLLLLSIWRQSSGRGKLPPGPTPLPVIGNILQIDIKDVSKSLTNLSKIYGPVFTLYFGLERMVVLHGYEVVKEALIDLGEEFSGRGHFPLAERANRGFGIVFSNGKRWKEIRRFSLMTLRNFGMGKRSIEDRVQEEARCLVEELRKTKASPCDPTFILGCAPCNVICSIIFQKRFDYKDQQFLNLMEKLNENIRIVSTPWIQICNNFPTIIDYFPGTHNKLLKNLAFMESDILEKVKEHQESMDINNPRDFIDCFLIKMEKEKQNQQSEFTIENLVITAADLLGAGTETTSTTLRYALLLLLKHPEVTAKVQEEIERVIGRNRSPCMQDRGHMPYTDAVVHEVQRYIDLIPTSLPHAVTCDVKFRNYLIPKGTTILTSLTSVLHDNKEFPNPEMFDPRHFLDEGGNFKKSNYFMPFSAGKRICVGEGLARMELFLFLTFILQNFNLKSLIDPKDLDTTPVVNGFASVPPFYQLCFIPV

SMILES	AC50 (Cytochrome P450 2C19)	EC50 [4]	EC50 (Streptococcus)	also measured
Cc1cc(NC(=O)/C=C/c2ccccc2Cl)no1				EC50 [1]: 118 µM (active); EC50 (H4): 9.55 µM (active)
CC1c2ccccc2SC(CCCN(C)C)c2ccccc21 (stereo not drawn)				EC50 [2]: > 60 µM (not active); EC50 [3]: 639 nM (active)
CCn1ccc(C(=O)NC2C(=O)N3C(C(=O)O)=C(C)CSC23)n1 (stereo not drawn)	14.1 µM (inconclusive)			
N=C(Cc1ccc(Cl)cc1)NOC(=O)c1cccc2ccccc12				EC50 [2]: > 60 µM (not active); EC50 [3]: 810 nM (active)
COc1ccc(-c2nnc(NC(=O)C3CCCN3S(=O)(=O)c3cccs3)o2)cc1 (stereo not drawn)		> 150 µM (not active)	> 150 µM (not active)	EC50 (Streptokinase A): > 150 µM (not active)
Cc1c(C(=O)Nc2cccc([N+](=O)[O-])c2)csc1-c1ccccc1				EC50 [2]: > 60 µM (not active); EC50 [3]: 1430 nM (active)
CN1C2C=C3C(C#N)=C(N)C(C#N)(C#N)[C@H](c4c(F)cccc4F)[C@H]3C1CC2 (stereo partly drawn)	22.4 µM (inconclusive)			
CCN1CC=C2C(C#N)=C(N)C(C#N)(C#N)[C@H](c3ccoc3)[C@H]2C1	39.8 µM (inconclusive)			AC50 (Cytochrome P450 1A2): 39.8 µM (inconclusive)
COc1ccc(-c2cnnn2-c2ccc(NC(=O)c3ccco3)cc2)cc1OC				AC50 (Cytochrome P450 1A2): 14.1 µM (inconclusive)
Cc1cc(=O)c(C(=O)O)cn1Nc1ccc(Cl)cc1		3.15 µM (active)	14.5 µM (active)	EC50 (Streptokinase A): > 150 µM (not active)
CC1(C)Cc2c(sc3nc(-c4cc5ccccc5o4)n(N)c(=O)c23)CO1				EC50 [1]: 0.817 µM (active); EC50 (H4): > 120 µM (inconclusive)
Cc1ccc(-c2[nH]nc(N)c2N=Nc2ccccc2C)cc1		2.63 µM (active)	8.03 µM (active)	EC50 (Streptokinase A): > 150 µM (not active)
CS(=O)(=O)c1ccc(/C=N\NC(N)=S)cc1				AC50 (Cytochrome P450 1A2): 5.01 µM (inconclusive)
CC1CCCN(C(=O)C(=O)c2cn(CC(=O)N3CCCCCC3)c3ccccc23)C1 (stereo not drawn)				EC50 [2]: > 60 µM (not active); EC50 [3]: 765 nM (active)
CC(C)CN=C(S)N1CCN(C)CC1	39.8 µM (inconclusive)			
COc1cc(/C=C/C(=O)OC2CC3CCC2(C)C3(C)C)ccc1O (stereo not drawn)		6.88 µM (active)	6.7 µM (active)	EC50 (Streptokinase A): 7.32 µM (active)
COC(=O)[C@@H]1CC[C@H](C)[C@@H](c2ccc(C)cc2)N1C(=O)c1ccc(/C=N\OC[C@@H](C)[C@H](OCc2ccccc2)C(C)C)cc1	6.31 µM (inconclusive)			
O=C(Nc1cccc(Cl)c1N1CCCC1)c1ccc(Br)o1		4.12 µM (active)	6.85 µM (active)	EC50 (Streptokinase A): > 150 µM (not active)
COc1ccc(-n2c(=O)c(CCc3ccccc3)nc3cnc(N4CCOCC4)nc32)cc1	25.1 µM (inconclusive)			AC50 (Cytochrome P450 1A2): 15.8 µM (inconclusive)
O=c1c2cc(N3CCOCC3)ccc2[nH]c(=S)n1CCc1ccccc1		0.447 µM (active)	12.3 µM (active)	EC50 (Streptokinase A): > 150 µM (not active)
COc1ccc(NC(=O)C2CC(=O)NC3=C2C(=O)CC(C)(C)C3)cc1 (stereo not drawn)	39.8 µM (inconclusive)			
Cc1cc(C)c(S(C)(=O)=O)c(Oc2ccc(F)cc2)n1	20 µM (inconclusive)			
Cc1cc2c(O)nc(N)nc2nc1C				AC50 (Cytochrome P450 1A2): 6.31 µM (inconclusive)
O=C(CCC(=O)Nc1cc(C(F)(F)F)ccc1Cl)N/N=C\c1cc([N+](=O)[O-])ccc1O		0.675 µM (active)	1.44 µM (active)	
CSc1nc(O)c2c(n1)N=C(C)/C(=C(/O)OC(C)C)C2c1ccncc1 (stereo not drawn)				AC50 (Cytochrome P450 1A2): 20 µM (inconclusive)
C[C@H]1[C@H](C)CC[C@]2(C)CC[C@]3(C)C(=CC[C@@H]4[C@@]5(C)CC[C@@H](O)[C@](C)(C(=O)O)[C@@H]5CC[C@]43C)[C@H]12 [BOSWELLIC ACID]		0.705 µM (active)	0.963 µM (active)	
